This is an account of results in US8623899B2, “Bis-benzimidazole derivatives as hepatitis C virus inhibitors” (Janssen Research & Development Ireland, priority 2009, dated 2014).

This assay concerns HCV type 1b replicon in Huh-7 luc/neo (Huh-Luc) cells. Put plainly: HCV replicon assay (Huh-Luc, luciferase readout). The class given is cell-based. The note with it: Hepatitis C virus, Huh-7, 72 h, luciferase activity, incubation of three days, read-out: HCV-REP-HUH7LUC_EC50. The text has this: The compounds of formula (I) were examined for inhibitory activity in the HCV replicon. This cellular assay is based on a bicistronic expression construct, as described by Lohmann et al. (1999) Science vol. 285 pp. 110-113 with modifications described by Krieger et al. (2001) Journal of Virology 75: 4614-4624, in a multi-target screening strategy.
In essence, the method was as follows:
The assay utilized the stably transfected cell line Huh-7 luc/neo (hereafter referred to as Huh-Luc). This cell line harbors an RNA encoding a bicistronic expression construct comprising the wild type NS3-NS5B regions of HCV type 1b translated from an Internal Ribosome Entry Site (IRES) from encephalomyocarditis virus (EMCV), preceded by a reporter portion (FfL-luciferase), and a selectable marker portion (neo^R, neomycine phosphotransferase). The construct is flanked by 5′ and 3′ NTRs (non-translated regions) from HCV type 1b. Continued culture of the replicon cells in the presence of G418 (neo^R) is dependent on the replication of the HCV RNA. The stably transfected replicon cells that express HCV RNA, which replicates autonomously and to high levels, encoding inter alia luciferase, were used for screening the antiviral compounds.
The replicon cells were plated in 384 well plates in the presence of the test and control compounds which were added in various concentrations. Following an incubation of three days, HCV replication was measured by assaying luciferase activity (using standard luciferase assay substrates and reagents and a Perkin Elmer ViewLux™ ultraHTS microplate imager). Replicon cells in the control cultures have high luciferase expression in the absence of any inhibitor. The inhibitory activity of the compound on luciferase activity was monitored on the Huh-Luc cells, enabling a dose-response curve for each test compound. EC50 values were then calculated, which represent the amount of compound required to decrease the level of detected luciferase activity by 50%, or more specifically, to reduce the ability of the genetically linked HCV replicon RNA to replicate.
`O=C(C(O)Cc1cccnc1)N1CCC[C@H]1c1nc2ccc(-c3ccc(-c4ccc5nc([C@@H]6CCCN6C(=O)C(O)Cc6cccnc6)[nH]c5c4)cc3)cc2[nH]1` (mixture of isomers) [Compound 35]: the EC50 turned out to be 22 nM.
On to `O=C(C(c1ccccc1)N1C2CCC1CC2)N1CCC[C@H]1c1nc2ccc(-c3ccc(-c4ccc5nc([C@@H]6CCCN6C(=O)C(c6ccccc6)N6C7CCC6CC7)[nH]c5c4)cc3)cc2[nH]1` (mixture of isomers) [Compound 43], for which the EC50 worked out at 3.2 nM.
As for `O=C(C(c1ccccc1)N1CCCC(F)(F)C1)N1CCC[C@H]1c1nc2ccc(-c3ccc(-c4ccc5nc([C@@H]6CCCN6C(=O)C(c6ccccc6)N6CCCC(F)(F)C6)[nH]c5c4)cc3)cc2[nH]1` (mixture of isomers) [Compound 44], the EC50 is 0.22 nM.
`O=C(C(Nc1ccccc1)c1ccc(Cl)cc1)N1CCC[C@H]1c1nc2ccc(-c3ccc(-c4ccc5nc([C@@H]6CCCN6C(=O)C(Nc6ccccc6)c6ccc(Cl)cc6)[nH]c5c4)cc3)cc2[nH]1` (mixture of isomers) [Compound 47]: the EC50 amounted to 1.5 nM.
As for `COC(=O)NC(C(=O)N1CCC[C@H]1c1nc2ccc(-c3ccc(-c4ccc5nc([C@@H]6CCCN6C(=O)C(NC(=O)OC)C6CCOCC6)[nH]c5c4)cc3)cc2[nH]1)C1CCOCC1` (mixture of isomers) [Compound 55], the EC50 amounted to 0.18 nM.
As for `O=C(Cc1ccccc1)N1CCC[C@H]1c1nc2ccc(-c3ccc(-c4ccc5nc([C@@H]6CCCN6C(=O)Cc6ccccc6)[nH]c5c4)cc3)cc2[nH]1` [Compound 1], the figure is 0.1 nM.
Regarding `COC(=O)N[C@H](C(=O)N1CCC[C@H]1c1nc2cc(-c3ccc(-c4ccc5nc([C@@H]6CCCN6C(=O)[C@@H](NC(=O)OC)[C@@H](C)OC)[nH]c5c4)cc3)ccc2[nH]1)[C@@H](C)OC` [Compound 2], the EC50 amounted to 0.021 nM.
For the compound `O=C([C@H]1CCCO1)N1CCC[C@H]1c1nc2ccc(-c3ccc(-c4ccc5nc([C@@H]6CCCN6C(=O)[C@H]6CCCO6)[nH]c5c4)cc3)cc2[nH]1` [Compound 3], the EC50 is 20 nM.
For `CC(=O)N[C@@H](C(=O)N1CCC[C@H]1c1nc2ccc(-c3ccc(-c4ccc5nc([C@@H]6CCCN6C(=O)[C@H](NC(C)=O)c6ccccc6)[nH]c5c4)cc3)cc2[nH]1)c1ccccc1` [Compound 4], the EC50 was found to be 0.18 nM.
Take `CN(C)C(C(=O)N1CCC[C@H]1c1nc2ccc(-c3ccc(-c4ccc5nc([C@@H]6CCCN6C(=O)C(c6ccc(Cl)cc6)N(C)C)[nH]c5c4)cc3)cc2[nH]1)c1ccc(Cl)cc1` (stereo partly shown) [Compound 5]: the EC50 stood at 0.59 nM.
On to `COc1cccc(CCC(=O)N2CCC[C@H]2c2nc3ccc(-c4ccc(-c5ccc6nc([C@@H]7CCCN7C(=O)CCc7cccc(OC)c7)[nH]c6c5)cc4)cc3[nH]2)c1` [Compound 6], for which the EC50 was determined as 500 nM.
With `O=C([C@@H](O)c1ccccc1)N1CCC[C@H]1c1nc2ccc(-c3ccc(-c4ccc5nc([C@@H]6CCCN6C(=O)[C@@H](O)c6ccccc6)[nH]c5c4)cc3)cc2[nH]1` [Compound 7], the EC50 came to 0.057 nM.
`O=C(CCc1ccccc1F)N1CCC[C@H]1c1nc2ccc(-c3ccc(-c4ccc5nc([C@@H]6CCCN6C(=O)CCc6ccccc6F)[nH]c5c4)cc3)cc2[nH]1` [Compound 8]: the EC50 came to 160 nM.
In the case of `COC(=O)NC1(C(=O)N2CCC[C@H]2c2nc3ccc(-c4ccc(-c5ccc6nc([C@@H]7CCCN7C(=O)C7(NC(=O)OC)CC7)[nH]c6c5)cc4)cc3[nH]2)CC1` [Compound 9], the EC50 amounted to 1 nM.
Consider `COc1c(F)cc(CC(=O)N2CCC[C@H]2c2nc3ccc(-c4ccc(-c5ccc6nc([C@@H]7CCCN7C(=O)Cc7cc(F)c(OC)c(F)c7)[nH]c6c5)cc4)cc3[nH]2)cc1F` [Compound 10], for which the EC50 came to 130 nM.
With `O=C(Cc1ccccc1OC(F)(F)F)N1CCC[C@H]1c1nc2ccc(-c3ccc(-c4ccc5nc([C@@H]6CCCN6C(=O)Cc6ccccc6OC(F)(F)F)[nH]c5c4)cc3)cc2[nH]1` [Compound 11], the EC50 came to 160 nM.
As to `O=C(Cc1cccnc1)N1CCC[C@H]1c1nc2ccc(-c3ccc(-c4ccc5nc([C@@H]6CCCN6C(=O)Cc6cccnc6)[nH]c5c4)cc3)cc2[nH]1` [Compound 12], the EC50 came out at 0.15 nM.
As for `O=C(CCc1cccnc1)N1CCC[C@H]1c1nc2ccc(-c3ccc(-c4ccc5nc([C@@H]6CCCN6C(=O)CCc6cccnc6)[nH]c5c4)cc3)cc2[nH]1` [Compound 13], the EC50 is 0.5 nM.
Regarding `O=C([C@@H]1CCCO1)N1CCC[C@H]1c1nc2ccc(-c3ccc(-c4ccc5nc([C@@H]6CCCN6C(=O)[C@@H]6CCCO6)[nH]c5c4)cc3)cc2[nH]1` [Compound 14], the EC50 worked out at 36 nM.
As to `O=C(C(=O)N1CCC[C@H]1c1nc2ccc(-c3ccc(-c4ccc5nc([C@@H]6CCCN6C(=O)C(=O)c6ccccc6)[nH]c5c4)cc3)cc2[nH]1)c1ccccc1` [Compound 15], the EC50 came to 40 nM.
As for `O=C(Cc1ccc2c(c1)OCO2)N1CCC[C@H]1c1nc2ccc(-c3ccc(-c4ccc5nc([C@@H]6CCCN6C(=O)Cc6ccc7c(c6)OCO7)[nH]c5c4)cc3)cc2[nH]1` [Compound 16], the figure is 69 nM.
For the compound `CCN(CC)[C@@H](C(=O)N1CCC[C@H]1c1nc2ccc(-c3ccc(-c4ccc5nc([C@@H]6CCCN6C(=O)[C@@H](c6ccccc6)N(CC)CC)[nH]c5c4)cc3)cc2[nH]1)c1ccccc1` [Compound 17], the EC50 was 0.03 nM.
In the case of `CN(C)CCC(=O)N1CCC[C@H]1c1nc2ccc(-c3ccc(-c4ccc5nc([C@@H]6CCCN6C(=O)CCN(C)C)[nH]c5c4)cc3)cc2[nH]1` [Compound 18] it was 49 nM.
Take `O=C(C(c1ccccc1)n1ccnc1)N1CCC[C@H]1c1nc2ccc(-c3ccc(-c4ccc5nc([C@@H]6CCCN6C(=O)C(c6ccccc6)n6ccnc6)[nH]c5c4)cc3)cc2[nH]1` (stereo partly shown) [Compound 19]: the EC50 was 0.45 nM.
In the case of `O=C([C@@H](c1ccccc1)N1CCCCC1)N1CCC[C@H]1c1nc2ccc(-c3ccc(-c4ccc5nc([C@@H]6CCCN6C(=O)[C@@H](c6ccccc6)N6CCCCC6)[nH]c5c4)cc3)cc2[nH]1` [Compound 20] it was 0.061 nM; in that of `O=C(c1ccoc1)N1CCC[C@H]1c1nc2ccc(-c3ccc(-c4ccc5nc([C@@H]6CCCN6C(=O)c6ccoc6)[nH]c5c4)cc3)cc2[nH]1` [Compound 21], 58 nM.
For the compound `CCC(=O)N[C@@H](C(=O)N1CCC[C@H]1c1nc2ccc(-c3ccc(-c4ccc5nc([C@@H]6CCCN6C(=O)[C@H](NC(=O)CC)c6ccccc6)[nH]c5c4)cc3)cc2[nH]1)c1ccccc1` [Compound 22], the EC50 came to 0.034 nM.
Take `CNC(=O)N[C@H](C(=O)N1CCC[C@H]1c1nc2ccc(-c3ccc(-c4ccc5nc([C@@H]6CCCN6C(=O)[C@@H](NC(=O)NC)C(C)C)[nH]c5c4)cc3)cc2[nH]1)C(C)C` [Compound 23]: the EC50 stood at 0.57 nM.
Regarding `Cc1nc(C(=O)N2CCC[C@H]2c2nc3ccc(-c4ccc(-c5ccc6nc([C@@H]7CCCN7C(=O)c7nc(C)oc7C)[nH]c6c5)cc4)cc3[nH]2)c(C)o1` [Compound 24], the EC50 stood at 1.4 nM.
As for `O=C(c1ccccn1)N1CCC[C@H]1c1nc2ccc(-c3ccc(-c4ccc5nc([C@@H]6CCCN6C(=O)c6ccccn6)[nH]c5c4)cc3)cc2[nH]1` [Compound 25], the EC50 stood at 1.7 nM.
As for `CC(C)C[C@@H](C(=O)N1CCC[C@H]1c1nc2ccc(-c3ccc(-c4ccc5nc([C@@H]6CCCN6C(=O)[C@H](CC(C)C)N(C)C)[nH]c5c4)cc3)cc2[nH]1)N(C)C` [Compound 26], the figure is 76 nM.
